Blank lines part the entries; values can stand above or below the compound they belong to.
Key:
Coagulation factor XI [1] = biological target: T1, Coagulation factor XI (Homo sapiens, UniProt P03951); test: Inhibition of FXIa (unknown origin)
Plasma kallikrein [2] = biological target: T2, Plasma kallikrein (Homo sapiens, UniProt P03952)
[3] = MRT in iv dosed rat measured upto 8 hrs by LC-MS/MS analysis; assay type: ADME, organism-based; conditions: in vivo
[4] = Metabolic stability in mouse liver microsomes assessed as half life; assay type: ADME, Microsome
[5] = Oral bioavailability in Sprague-Dawley rat incubated upto 24 hrs by LC-MS/MS analysis; assay type: ADME, organism-based; conditions: in vivo
Plasma [6] = test: Anticoagulant activity in human plasma assessed as concentration required to double the activated partial thromboplastin time; assay type: functional
[7] = Half life in Sprague-Dawley rat at 1 mg/kg, iv; assay type: ADME, organism-based; conditions: in vivo
[8] = Metabolic stability in dog liver microsomes assessed as half life; assay type: ADME, Canis lupus familiaris, Microsome
[9] = Half life in Sprague-Dawley rat at 1 mg/kg, iv by LC-MS/MS analysis; assay type: ADME, organism-based; conditions: in vivo
[10] = Oral bioavailability in Sprague-Dawley rat at 2 mg/kg by LC-MS/MS analysis; assay type: ADME, organism-based; conditions: in vivo
Neutrophil elastase = biological target: T3, Neutrophil elastase (Homo sapiens, UniProt P08246); test: Inhibition of human Neutrophil elastase
T3 sequence (P08246 whole entry): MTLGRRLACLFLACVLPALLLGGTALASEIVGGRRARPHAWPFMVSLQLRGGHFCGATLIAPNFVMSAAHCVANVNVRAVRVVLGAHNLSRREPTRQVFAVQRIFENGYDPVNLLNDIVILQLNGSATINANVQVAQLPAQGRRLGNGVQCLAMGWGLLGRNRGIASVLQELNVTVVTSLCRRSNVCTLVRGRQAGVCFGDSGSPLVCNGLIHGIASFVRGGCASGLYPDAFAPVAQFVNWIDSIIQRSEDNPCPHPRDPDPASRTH

Cathepsin G = biological target: T4, Cathepsin G (Homo sapiens, UniProt P08311); test: Inhibition of human cathepsin G
T4 sequence (P08311 whole entry): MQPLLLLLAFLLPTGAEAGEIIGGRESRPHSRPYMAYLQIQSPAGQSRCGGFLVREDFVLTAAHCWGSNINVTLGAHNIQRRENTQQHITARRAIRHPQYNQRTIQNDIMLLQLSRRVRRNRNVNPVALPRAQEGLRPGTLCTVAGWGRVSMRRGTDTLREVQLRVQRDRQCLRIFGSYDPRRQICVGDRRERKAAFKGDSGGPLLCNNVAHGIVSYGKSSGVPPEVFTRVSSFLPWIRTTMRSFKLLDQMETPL

Plasma [11] = test: Anticoagulant activity in human plasma assessed as concentration required to 1.5 times activation of partial thromboplastin time; assay type: functional
Coagulation factor XI [12] = biological target: T1, Coagulation factor XI; test: Inhibition of human FXIa by absorbance based analysis
[13] = Half life in IG dosed Beagle dog measured upto 24 hrs by LC/MS analysis; assay type: ADME, organism-based, Canis lupus familiaris; conditions: in vivo, po
[14] = Oral bioavailability in Beagle dog measured upto 24 hrs by LC/MS analysis; assay type: ADME, organism-based, Canis lupus familiaris; conditions: in vivo
Plasma [15] = test: Anticoagulant activity in human plasma assessed as concentration required to double the prothrombin time; assay type: functional
[16] = Selectivity index, ratio IC50 for FXIa (unknown origin) to IC50 for FD (unknown origin)
[17] = Oral bioavailability in mouse; assay type: ADME, organism-based; conditions: in vivo
[18] = Clearance in mouse; assay type: ADME, organism-based; conditions: in vivo
Complement factor D = Complement factor D (Homo sapiens, UniProt P00746); test: Inhibition of FD (unknown origin)
Chain of Complement factor D (P00746 whole entry): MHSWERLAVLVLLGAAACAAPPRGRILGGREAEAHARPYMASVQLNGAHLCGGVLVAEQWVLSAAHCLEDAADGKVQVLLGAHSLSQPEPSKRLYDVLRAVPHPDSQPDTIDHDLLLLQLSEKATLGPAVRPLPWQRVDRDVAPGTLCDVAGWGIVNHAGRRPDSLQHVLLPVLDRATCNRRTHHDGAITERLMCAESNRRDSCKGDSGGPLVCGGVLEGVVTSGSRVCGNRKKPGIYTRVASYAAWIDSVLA

[19] = Half life in mouse; assay type: ADME, organism-based; conditions: in vivo
[20] = Solubility of the compound; assay type: physicochemical
[21] = Half life in rat; assay type: ADME; conditions: in vivo
[22] = Clearance in rat; assay type: ADME; conditions: in vivo
Coagulation factor XI [23] = biological target: T1, Coagulation factor XI; test: Inhibition of human FXIa
Prothrombin = Prothrombin (Homo sapiens, UniProt P00734); test: Inhibition of human thrombin
[24] = Half life in human at 0.6 mg/kg, iv administered for 5 days; assay type: ADME, organism-based; conditions: in vivo, time 5 day
Trypsin = Trypsin (Homo sapiens, UniProt P07477+P07478+P35030); test: Inhibition of human trypsin; assay type: protein assay
in vivo [25] = conditions: rat, iv, 0.3 mg/kg
in vivo [26] = conditions: rhesus monkey, iv, 3 mg/kg
Coagulation factor XI [27] = biological target: T1, Coagulation factor XI; test: Binding affinity to FXIa (unknown origin) assessed as inhibition constant
Plasma kallikrein [28] = biological target: T2, Plasma kallikrein; test: Binding affinity to PKal (unknown origin) assessed as inhibition constant

T2 sequence (P03952 20-390 limits assumed): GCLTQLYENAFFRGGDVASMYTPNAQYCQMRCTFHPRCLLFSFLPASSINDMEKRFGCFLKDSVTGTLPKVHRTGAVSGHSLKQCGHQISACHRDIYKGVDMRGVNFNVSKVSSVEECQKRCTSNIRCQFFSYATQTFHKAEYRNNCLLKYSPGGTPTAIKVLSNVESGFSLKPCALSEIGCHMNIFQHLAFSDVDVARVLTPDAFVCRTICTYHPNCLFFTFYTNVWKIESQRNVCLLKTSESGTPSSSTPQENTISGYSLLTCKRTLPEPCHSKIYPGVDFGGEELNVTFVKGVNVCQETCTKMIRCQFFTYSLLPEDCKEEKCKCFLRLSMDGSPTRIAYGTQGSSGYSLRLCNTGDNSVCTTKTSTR
T2 sequence (P03952 391-638 limits assumed): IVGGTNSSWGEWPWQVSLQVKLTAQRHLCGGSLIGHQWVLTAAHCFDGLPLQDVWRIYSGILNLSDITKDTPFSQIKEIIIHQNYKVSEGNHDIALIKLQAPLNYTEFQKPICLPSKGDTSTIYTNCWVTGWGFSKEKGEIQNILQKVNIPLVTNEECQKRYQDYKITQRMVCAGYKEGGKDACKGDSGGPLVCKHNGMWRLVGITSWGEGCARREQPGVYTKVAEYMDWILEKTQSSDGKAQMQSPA
T1 sequence (P03951 19-387 limits assumed): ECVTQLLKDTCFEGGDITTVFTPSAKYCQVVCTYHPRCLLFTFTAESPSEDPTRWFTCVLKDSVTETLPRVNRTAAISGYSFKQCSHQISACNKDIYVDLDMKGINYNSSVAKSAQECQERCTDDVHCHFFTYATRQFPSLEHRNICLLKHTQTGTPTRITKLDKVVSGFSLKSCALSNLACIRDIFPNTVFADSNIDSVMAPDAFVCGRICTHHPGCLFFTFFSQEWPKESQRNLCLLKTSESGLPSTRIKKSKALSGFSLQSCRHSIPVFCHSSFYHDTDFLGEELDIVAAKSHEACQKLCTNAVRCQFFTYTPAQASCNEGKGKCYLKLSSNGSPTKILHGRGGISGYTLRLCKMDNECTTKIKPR
T1 sequence (P03951 388-625 limits assumed): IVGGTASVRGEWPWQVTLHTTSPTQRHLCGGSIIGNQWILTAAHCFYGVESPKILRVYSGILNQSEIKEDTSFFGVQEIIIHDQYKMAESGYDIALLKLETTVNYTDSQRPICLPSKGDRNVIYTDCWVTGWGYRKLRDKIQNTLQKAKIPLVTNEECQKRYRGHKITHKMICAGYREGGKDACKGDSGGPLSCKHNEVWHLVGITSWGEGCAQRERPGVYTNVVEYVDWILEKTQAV

- IC50 (Coagulation factor XI [1]): 0.9 nM
- IC50 (Plasma kallikrein [2]): 42 nM
- MRT [3]: 11 h
SMILES: COC(=O)Nc1ccc2c(c1)NC(=O)[C@H](C)CCC[C@H](c1ccc(-c3cc(Cl)ccc3-n3cc(C(F)(F)F)cn3)c[n+]1[O-])c1nc-2c(C)[nH]1

- half-life [9]: 1.6 h
- IC50 (Coagulation factor XI [1]): 3.3 nM
- bioavailability [10]: 25.3%
SMILES: Nc1ccc(-c2nc(F)c([C@@H]3[C@H]4C[C@H]4c4cc(-c5cc(Cl)ccc5-n5cnnn5)cc(=O)n43)[nH]2)c(F)n1

- IC50 (Coagulation factor XI [1]): 7.1 nM
- IC50 (Plasma kallikrein [2]): > 14000 nM
- solubility [20]: > 5.2 mg/mL
- half-life [21]: 1.26 h
- clearance [22]: 0.552 L/h/kg
SMILES: O=C(/C=C/c1cc(Cl)ccc1-n1cnnn1)N[C@@H](CC(=O)N1CCN(c2ccccc2)CC1)C(=O)Nc1ccc(C(=O)O)cc1

- IC50 (Coagulation factor XI [1]): 2.5 nM
- IC50 (Plasma kallikrein [2]): 189 nM
SMILES: O=C(O)c1ccc(NC(=O)[C@H](Cc2ccccc2)n2cnc(-c3cc(Cl)ccc3-n3cc(Cl)nn3)cc2=O)cc1

- IC50 (Coagulation factor XI [23]): 7.1 nM
- IC50 (Prothrombin): > 20000 nM
- half-life [24]: 0.75 h
- IC50 (Trypsin): > 4800 nM
SMILES: C[C@@H](NC(=O)N1C(=O)[C@H](Cc2ccnc(N)c2)[C@H]1C(=O)O)C1CCCCC1 [FRUNEXIAN]

- Ki (Coagulation factor XI [1]): 6 nM
SMILES: O=C(O)c1ccc(NC(=O)[C@H](CC2=CC=CCC2)n2ccc(-c3cc(Cl)ccc3-n3cnnn3)cc2=O)cc1

- Ki (Coagulation factor XI [27]): 5 nM
- Ki (Plasma kallikrein [28]): 1790 nM
SMILES: COC(=O)NCC[C@@H]1Cc2cccc(c2)[C@@H](n2cnc(-c3cc(Cl)ccc3-n3cc(C(F)(F)F)cn3)cc2=O)CCC[C@@H](C)C(=O)N1

Second part, the compound before the results:

SMILES: COCC[C@@H](C(=O)Nc1ccc2nn(C)cc2c1)N1CC(=O)N(c2cc(Cl)ccc2-n2cc(Cl)nn2)CC1=O
- half-life [4]: > 5 h
- bioavailability [5]: 72.5%
- EC (Plasma [6]): 5.3 µM
- half-life [7]: 1.5 h
- half-life [8]: > 15 h

SMILES: C[C@H]1COc2cn([C@@H](CC3CCCCO3)C(=O)Nc3ccc(C(N)=O)cc3)c(=O)cc2-c2c(ccc(Cl)c2F)C1 (stereo not given in full)
- IC50 (Coagulation factor XI [1]): 1.7 nM
- IC50 (Plasma kallikrein [2]): 60 nM

SMILES: O=C(Nc1ccc(C(=O)Nc2ccc(C(=O)Nc3ccc(OS(=O)(=O)O)c4cc(OS(=O)(=O)O)cc(OS(=O)(=O)O)c34)cc2)cc1)Nc1ccc(C(=O)Nc2ccc(C(=O)Nc3ccc(OS(=O)(=O)O)c4cc(OS(=O)(=O)O)cc(OS(=O)(=O)O)c34)cc2)cc1
- IC50 (Neutrophil elastase): 220 nM
- IC50 (Cathepsin G): 570 nM
- IC50 (Coagulation factor XI [1]): 4600 nM

SMILES: C[C@@H]1CCC[C@H](n2cnc(-c3cc(Cl)ccc3-n3cc(Cl)nn3)cc2=O)c2cc(ccn2)-c2c(cnn2C(F)F)NC1=O [MILVEXIAN]
- EC (Plasma [11]): 0.5 µM

SMILES: COc1nn([C@@H](Cc2ccccc2)C(=O)Nc2ccc(C(=O)O)cc2)c(=O)cc1-c1cc(Cl)ccc1C(C)=O
- Ki (Plasma kallikrein [2]): 103 nM
- Ki (Coagulation factor XI [12]): 1.6 nM
- half-life [13]: 4.5 h
- bioavailability [14]: 49.6%

SMILES: CC(C)c1cc(COc2ccccc2CC(=O)O)cc(-c2ccc3c(c2)[C@H](N)CO3)c1
- EC (Plasma [6]): 2.2 µM
- EC (Plasma [15]): 9.9 µM

SMILES: CC(C)c1cc(-c2ccc3c(c2)[C@H](N)CO3)cc([C@@H](O)CN2CCc3cccc(C(=O)O)c32)c1
- Ratio IC50 [16]: 10000
- IC50 (Coagulation factor XI [1]): 0.4 nM
- bioavailability [17]: 100%
- clearance [18]: 0.66 L/h/kg
- EC (Plasma [6]): 1.3 µM
- IC50 (Plasma kallikrein [2]): 1 nM
- IC50 (Complement factor D): > 5000 nM
- EC (Plasma [15]): 28.7 µM
- half-life [19]: 3.73 h

SMILES: O=C(OC[C@H]1O[C@@H](OC(=O)c2cc(OS(=O)(=O)O)cc(OS(=O)(=O)O)c2)[C@H](OC(=O)c2cc(OS(=O)(=O)O)cc(OS(=O)(=O)O)c2)[C@@H](OC(=O)c2cc(OS(=O)(=O)O)cc(OS(=O)(=O)O)c2)[C@@H]1OC(=O)c1cc(OS(=O)(=O)O)cc(OS(=O)(=O)O)c1)c1cc(OS(=O)(=O)O)cc(OS(=O)(=O)O)c1
- IC50 (Coagulation factor XI [1]): 1400 nM

SMILES: CC[C@@H](C(=O)Nc1ccc(C(N)=O)c(F)c1)n1cc(OC)c(-c2cc(Cl)ccc2-n2cc(C(F)(F)F)nn2)cc1=O
- clearance (in vivo [25]): 0.83 L/h/kg
- clearance (in vivo [26]): 0.12 L/h/kg

SMILES: Nc1ccc(-c2[nH]c(Cn3c4c(c(-c5cc(Cl)ccc5-n5cnnn5)cc3=O)C(=O)CC4)nc2F)c(F)n1
- IC50 (Coagulation factor XI [1]): 0.32 nM

— ChEMBL document CHEMBL5338745, “Factor XIa Inhibitors in Anticoagulation Therapy: Recent Advances and Perspectives” (J Med Chem, 2023)
